Columns and labels:
Design in all cases: purchased Milipore (Millipore)
[1] = target: T1, Human adrenergic α2B receptor (Homo sapiens, UniProt P18089); test: Radioligand binding, adrenergic α2B (Protocol Group B); settings: Protocol Group B; for Percentage inhibition of ligand binding, Adrenergic α2B (10 nM): 10 nM compound, 0.01 µM; for Percentage inhibition of ligand binding, Adrenergic α2B (30 nM): 30 nM compound, 0.03 µM; for Percentage inhibition of ligand binding, Adrenergic α2B (0.1 μM): 0.1 μM compound
T1 sequence (P18089 1-450): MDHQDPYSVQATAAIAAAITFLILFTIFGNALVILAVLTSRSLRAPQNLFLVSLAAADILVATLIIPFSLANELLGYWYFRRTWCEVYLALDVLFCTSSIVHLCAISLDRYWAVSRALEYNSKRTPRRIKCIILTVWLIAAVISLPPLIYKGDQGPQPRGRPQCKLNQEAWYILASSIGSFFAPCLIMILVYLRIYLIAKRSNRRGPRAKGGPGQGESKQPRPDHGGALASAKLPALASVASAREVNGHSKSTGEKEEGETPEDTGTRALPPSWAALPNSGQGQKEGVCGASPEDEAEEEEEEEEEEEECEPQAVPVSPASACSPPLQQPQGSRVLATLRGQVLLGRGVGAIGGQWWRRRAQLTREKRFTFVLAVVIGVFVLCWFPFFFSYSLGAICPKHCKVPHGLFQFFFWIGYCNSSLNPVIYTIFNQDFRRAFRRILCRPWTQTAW
Description: To evaluate the activity of compounds in radioligand binding assays, Human adrenergic α2B receptor obtained from recombinant cell membrane from Milipore. Binding experiments were carried out in Tris-HCl buffer (50 mM Tris-HCl buffer, pH 7.4, 5 mM Mgcl2, 1 mM Cacl2, 0.2% BSA) as recommended by Milipore. […] Non-specific binding was estimated in the presence of 10 μM Rauwolscine. […] Compounds were screened at various concentrations, using 1% DMSO as vehicle. Biochemical assay results are presented as the percent Inhibition of specific binding in Table B1b, or estimated Ki values in Table B1c.

[2] = target: T2, Human adrenergic α2A receptor (Homo sapiens, UniProt P08913); test: Radioligand binding, adrenergic α2A (Protocol Group B); settings: Protocol Group B; for Percentage inhibition of ligand binding, Adrenergic α2A (0.1 μM): 0.1 μM compound; for Percentage inhibition of ligand binding, Adrenergic α2A (0.3 μM): 0.3 μM compound
T2 sequence (P08913 1-465): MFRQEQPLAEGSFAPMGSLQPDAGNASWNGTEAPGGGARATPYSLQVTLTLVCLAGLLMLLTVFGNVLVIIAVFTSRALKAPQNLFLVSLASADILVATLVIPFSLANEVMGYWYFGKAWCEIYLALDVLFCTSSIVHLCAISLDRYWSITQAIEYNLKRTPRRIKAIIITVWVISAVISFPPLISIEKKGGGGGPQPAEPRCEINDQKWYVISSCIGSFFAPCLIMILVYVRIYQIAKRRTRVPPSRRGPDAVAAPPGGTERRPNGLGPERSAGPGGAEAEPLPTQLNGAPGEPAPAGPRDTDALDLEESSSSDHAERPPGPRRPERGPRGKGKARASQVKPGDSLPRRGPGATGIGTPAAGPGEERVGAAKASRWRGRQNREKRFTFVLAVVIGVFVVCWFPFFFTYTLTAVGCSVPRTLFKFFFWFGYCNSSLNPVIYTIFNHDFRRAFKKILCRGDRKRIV
Description: To evaluate the activity of compounds in radioligand binding assays, Human adrenergic α2A receptor obtained from recombinant cell membrane from Milipore. Binding experiments were carried out in Tris-HCl buffer (50 mM Tris-HCl buffer, pH 7.4, 5 mM Mgcl2, 1 mM Cacl2, 0.2% BSA) as recommended by Milipore. Compounds were incubated with 2 nM [^3H]MK-912 for 60 min at 25° C. Non-specific binding was estimated in the presence of 10 μM Rauwolscine. Receptor proteins were harvested on 0.33% PEI(poly-ethylenemine) soaked GFC filter mat, the specifically bound [^3H]MK-912 were counted to determine total binding. Compounds were screened at various concentrations, using 1% DMSO as vehicle. percent inhibition of specific binding was determined. Biochemical assay results are presented as the percent Inhibition of specific binding in Table B1b, or estimated Ki values in Table B1c.

[3] = target: T3, Human adrenergic α1B receptor (Homo sapiens, UniProt P35368); test: Radioligand binding, adrenergic α1B (Protocol Group B); settings: Protocol Group B; for Percentage inhibition of ligand binding, Adrenergic α1B (0.1 μM): 0.1 μM compound; for Percentage inhibition of ligand binding, Adrenergic α1B (0.3 μM): 0.3 μM compound
T3 sequence (P35368 1-520): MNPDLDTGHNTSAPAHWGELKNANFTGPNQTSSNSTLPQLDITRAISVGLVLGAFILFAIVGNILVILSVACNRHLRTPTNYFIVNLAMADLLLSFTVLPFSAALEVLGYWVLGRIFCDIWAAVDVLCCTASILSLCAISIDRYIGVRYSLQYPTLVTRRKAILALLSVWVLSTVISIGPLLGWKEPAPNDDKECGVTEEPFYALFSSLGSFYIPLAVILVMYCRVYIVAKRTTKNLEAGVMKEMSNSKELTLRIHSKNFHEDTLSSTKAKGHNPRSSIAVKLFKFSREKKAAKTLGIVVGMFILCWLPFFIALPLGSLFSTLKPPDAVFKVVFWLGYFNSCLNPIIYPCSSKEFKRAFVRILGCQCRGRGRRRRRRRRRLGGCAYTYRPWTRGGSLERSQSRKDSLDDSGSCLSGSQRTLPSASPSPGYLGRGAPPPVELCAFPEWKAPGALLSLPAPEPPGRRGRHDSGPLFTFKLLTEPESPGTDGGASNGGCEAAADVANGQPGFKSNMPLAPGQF
Description: To evaluate the activity of compounds in radioligand binding assays, Human adrenergic α1B receptor obtained from recombinant cell membrane from Milipore. Binding experiments were carried out in Tris-HCl buffer (50 mM Tris-HCl buffer, pH 7.4, 10 mM Mgcl2, 1 mM EDTA) as recommended by Milipore. Compounds were incubated with 0.3 nM [^3H]Prazosin for 60 min at 25° C. Non-specific binding was estimated in the presence of 10 μM prazosin. Receptor proteins were harvested on 0.33% PEI(poly-ethylenemine) soaked GFC filter mat, the specifically bound [^3H]Prazosin were counted to determine total binding. Compounds were screened at various concentrations, using 1% DMSO as vehicle. percent inhibition of specific binding was determined. Biochemical assay results are presented as the percent Inhibition of specific binding in Table B1b, or estimated Ki values in Table B1c.

| SMILES | Percentage inhibition of ligand binding, Adrenergic α2B (10 nM) [1] [%] | Percentage inhibition of ligand binding, Adrenergic α2B (30 nM) [1] [%] | Percentage inhibition of ligand binding, Adrenergic α2B (0.1 μM) [1] [%] | Percentage inhibition of ligand binding, Adrenergic α2A (0.1 μM) [2] [%] | Percentage inhibition of ligand binding, Adrenergic α2A (0.3 μM) [2] [%] | Percentage inhibition of ligand binding, Adrenergic α1B (0.1 μM) [3] [%] | Percentage inhibition of ligand binding, Adrenergic α1B (0.3 μM) [3] [%] |
| --- | --- | --- | --- | --- | --- | --- | --- |
| Cc1ccc2c(c1)c1c(n2CC(C)(O)c2ccncc2)CC2CCCN2C1 (single isomer, unassigned) [37b] | 25 | 48 | 75 | 15 | 17 | 40 | 68 |
| Cc1ccc2c(c1)c1c(n2CC(C)(O)c2ccncc2)CC2CCCN2C1 (single isomer, unassigned) [37c] | 19 | 46 | 73 | −2 | 14 | 15 | 37 |
| Cc1ccc2c(c1)c1c(n2CC(C)(O)c2ccncc2)CC2CCCN2C1 (single isomer, unassigned) [37d] | 15 | 36 | 68 | 4 | 17 | 5 | 14 |

Further lines, results first:

| Percentage inhibition of ligand binding, Adrenergic α2B (10 nM) [1] [%] | Percentage inhibition of ligand binding, Adrenergic α2B (30 nM) [1] [%] | Percentage inhibition of ligand binding, Adrenergic α2B (0.1 μM) [1] [%] | Percentage inhibition of ligand binding, Adrenergic α2A (0.1 μM) [2] [%] | Percentage inhibition of ligand binding, Adrenergic α2A (0.3 μM) [2] [%] | Percentage inhibition of ligand binding, Adrenergic α1B (0.1 μM) [3] [%] | Percentage inhibition of ligand binding, Adrenergic α1B (0.3 μM) [3] [%] | SMILES |
| --- | --- | --- | --- | --- | --- | --- | --- |
| 15 | 38 | 62 | 12 | 26 | 15 | 36 | Cc1ccc2c(c1)c1c(n2CC(C)(O)c2ccc(N(C)C)nc2)CCN(C)C1 (single isomer, unassigned) [39a] |
| 5 | 20 | 32 | 6 | 5 | 10 | 10 | Cc1ccc2c(c1)c1c(n2CC(C)(O)c2ccc(N(C)C)nc2)CCN(C)C1 (single isomer, unassigned) [39b] |
| −9 | 0 |  | 1 | 4 | 7 | 4 | Cc1cc(C)c2c(c1)c1c(n2CC(C)(O)c2cccnc2)CCN2CCCC12 (single isomer, unassigned) [44c] |

Reference: US20150315188A1, “COMPOUNDS AND METHODS FOR TREATMENT OF HYPERTENSION” (MEDIVATION TECHNOLOGIES, INC., priority 2012, published 2015)
